Source: patent publication US12441768B2, “Compositions and methods for treating endometriosis” (EndoMet Biosciences, Inc., priority 2018, dated 2025)
Where a SMILES comes first, the peptide text is derived from it.

Columns and labels:
[1] = target: Wnt-responsive promoter (TCF/LEF); test: Wnt-dependent luciferase reporter assay; type: cell-based, murine
Procedure, shortened: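 Murine 3T3 fibroblasts carrying a TCF/LEF-driven luciferase reporter, stimulated with Wnt3a in the presence of increasing peptide concentrations or vehicle. Luminescence inhibition gave EC50 values in uM.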

[2] = target: T1, β-catenin (Homo sapiens, UniProt P35222); test: KD50 measurement using competitive fluorescence polarization (FP) with labelled TCF4; type: binding; details: fluorescence polarization, β-catenin; for Kd: read-out: β-Cat FP KD
T1 sequence (P35222 1-781): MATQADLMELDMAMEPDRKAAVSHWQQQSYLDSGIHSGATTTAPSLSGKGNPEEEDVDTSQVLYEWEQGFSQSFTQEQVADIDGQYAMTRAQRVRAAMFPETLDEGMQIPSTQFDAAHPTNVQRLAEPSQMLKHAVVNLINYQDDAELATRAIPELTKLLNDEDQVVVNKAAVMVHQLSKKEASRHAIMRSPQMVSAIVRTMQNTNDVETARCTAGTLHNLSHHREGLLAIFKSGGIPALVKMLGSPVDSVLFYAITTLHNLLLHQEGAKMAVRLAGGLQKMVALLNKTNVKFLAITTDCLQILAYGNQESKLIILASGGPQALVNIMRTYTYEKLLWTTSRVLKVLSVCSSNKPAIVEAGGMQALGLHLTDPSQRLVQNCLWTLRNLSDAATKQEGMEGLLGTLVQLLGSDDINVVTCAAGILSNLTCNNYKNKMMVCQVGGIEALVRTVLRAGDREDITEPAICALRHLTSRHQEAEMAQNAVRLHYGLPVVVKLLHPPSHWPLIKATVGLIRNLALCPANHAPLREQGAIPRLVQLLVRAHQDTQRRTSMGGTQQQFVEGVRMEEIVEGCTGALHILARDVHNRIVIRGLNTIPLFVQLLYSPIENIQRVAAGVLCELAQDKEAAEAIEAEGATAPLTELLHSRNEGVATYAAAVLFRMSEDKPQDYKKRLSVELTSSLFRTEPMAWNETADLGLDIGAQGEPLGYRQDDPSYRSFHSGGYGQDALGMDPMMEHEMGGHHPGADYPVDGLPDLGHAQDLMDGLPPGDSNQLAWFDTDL
Procedure, shortened: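 Each compound competes against labelled TCF4 (5 nM) for 100 nM β-catenin at room temperature, tested over 10 nM to 30 uM. Signal: polarization at 470/520 nm excitation/emission. Three repeat experiments were performed.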

[3] = % Viability non-Wnt responsive cells

SMILES | EC50 [1] | Kd [2] | β-Cat FP Hill slope [2] | viability [3]
CC[C@H](C)[C@@H]1NC(=O)[C@H](CC(C)C)NC(=O)[C@H](Cc2ccccc2)NC(=O)[C@H](Cc2c[nH]c3ccccc23)N(C)C(=O)[C@H](CCSC)NC(=O)[C@H](CCCNC(=N)N)NC(=O)[C@H]([C@@H](C)CC)NC(=O)[C@H](CCSC)NC(=O)[C@@H](N)CCCCNC(=O)CCCCCCCNC(=O)CNC(=O)[C@H](Cc2c[nH]c3ccccc23)NC(=O)[C@H](Cc2ccccc2)NC(=O)[C@H](CO)NC1=O [compound 21] (HELM PEPTIDE1{K.M.I.R.M.[meW].F.L.I.S.F.W.G.[O=C(CCCCCCCN[*:1])[*:2]]}$PEPTIDE1,PEPTIDE1,1:R3-14:R2$$$V2.0) | > 30 µM | > 30 µM | – | 98.7%
CC[C@H](C)[C@@H]1NC(=O)[C@H](CC(C)C)NC(=O)[C@H]([C@@H](C)CC)NC(=O)[C@H](Cc2c[nH]c3ccccc23)NC(=O)[C@@H](N)CCCCNC(=O)CC[C@@H](C(=O)O)NC(=O)[C@H](Cc2c[nH]c3ccccc23)NC(=O)[C@H](Cc2ccccc2)NC(=O)[C@H](CO)NC1=O [compound 182] (HELM PEPTIDE1{K.W.I.L.I.S.F.W.E}$PEPTIDE1,PEPTIDE1,1:R3-9:R3$$$V2.0) | 22.5 to 30 µM | 0.4 to 1 µM | 1.06 | 95.3%
CC[C@H](C)[C@H](NC(=O)[C@H](CC(C)C)NC(=O)[C@H](Cc1ccccc1)NC(=O)[C@H](Cc1c[nH]c2ccccc12)NC(=O)[C@H](CCCCN)NC(=O)[C@H](CCCNC(=N)N)NC(=O)[C@H](CO)NC(=O)[C@@H](N)CCSC)C(=O)N[C@@H](CO)C(=O)N[C@@H](Cc1ccccc1)C(=O)N[C@@H](Cc1c[nH]c2ccccc12)C(=O)NCC(=O)O [compound 59] (H-MSRKWFLISFWG-OH) | > 30 µM | > 30 µM | – | 102%
CC[C@H](C)[C@H](NC(=O)[C@H](CC(C)C)NC(=O)[C@H](Cc1ccccc1)NC(=O)[C@H](Cc1c[nH]c2ccccc12)NC(=O)[C@H](CCSC)NC(=O)[C@H](CCCNC(=N)N)NC(=O)[C@H](CO)NC(=O)[C@@H](N)Cc1ccc(O)cc1)C(=O)N[C@@H](CO)C(=O)N[C@@H](Cc1ccccc1)C(=O)N[C@@H](Cc1c[nH]c2ccccc12)C(N)=O [compound 82] (H-YSRMWFLISFW-NH2) | > 30 µM | > 30 µM | – | 84%
CC[C@H](C)[C@@H]1NC(=O)[C@H](CC(C)C)NC(=O)[C@H](Cc2ccccc2)NC(=O)[C@H](Cc2c[nH]c3ccccc23)NC(=O)[C@@H](NC(C)=O)CCCCNC(=O)CC[C@@H](C(=O)O)NC(=O)[C@H](Cc2c[nH]c3ccccc23)NC(=O)[C@H](Cc2ccccc2)NC(=O)[C@H](CS)NC1=O [compound 185] (HELM PEPTIDE1{[ac].K.W.F.L.I.C.F.W.E}$PEPTIDE1,PEPTIDE1,2:R3-10:R3$$$V2.0) | 22.5 to 30 µM | < 0.4 µM | 1.32 | 87.8%
CC[C@H](C)[C@H](NC(=O)[C@H](CC(C)C)NC(=O)[C@H](Cc1ccccc1)NC(=O)[C@@H](N)Cc1c[nH]c2ccccc12)C(=O)N[C@@H](CO)C(=O)N[C@H](C(=O)N[C@@H](Cc1c[nH]c2ccccc12)C(=O)O)[C@@H](C)O [compound 103] (H-WFLISTW-OH) | 15 to 22.5 µM | 1 to 10 µM | 1.71 | 102%
CC[C@H](C)[C@H](NC(=O)[C@H](CC(C)C)NC(=O)[C@H](Cc1ccccc1)NC(=O)[C@H](Cc1c[nH]c2ccccc12)NC(=O)[C@H](CCSC)NC(=O)[C@H](CCCNC(=N)N)NC(=O)[C@H](CO)NC(=O)[C@@H](N)CC(=O)O)C(=O)N[C@@H](CO)C(=O)N[C@@H](Cc1ccccc1)C(=O)N[C@@H](Cc1c[nH]c2ccccc12)C(N)=O [compound 85] (H-DSRMWFLISFW-NH2) | > 30 µM | > 30 µM | – | 107%

The next lines start with results.

EC50 [1] | Kd [2] | β-Cat FP Hill slope [2] | SMILES | viability [3]
< 7.5 µM | > 30 µM | – | CC[C@H](C)[C@H](NC(=O)[C@H](CC(C)C)NC(=O)[C@H](C)NC(=O)[C@H](Cc1c[nH]c2ccccc12)NC(=O)[C@@H](N)CCSC)C(=O)N[C@@H](CO)C(=O)N[C@@H](Cc1ccccc1)C(=O)N[C@@H](Cc1c[nH]c2ccccc12)C(=O)NCC(=O)O [compound 156] (H-MWALISFWG-OH) | 102%
< 7.5 µM | < 0.4 µM | 1.15 | CC[C@H](C)[C@H](NC(=O)[C@H](CC(C)C)NC(=O)[C@H](Cc1ccccc1)NC(=O)[C@H](Cc1c[nH]c2ccccc12)NC(=O)[C@@H](N)CC(=O)O)C(=O)N[C@@H](CS)C(=O)N[C@@H](Cc1ccccc1)C(=O)N[C@@H](Cc1c[nH]c2ccccc12)C(=O)NCC(=O)O [compound 142] (H-DWFLICFWG-OH) | 108%
15 to 22.5 µM | > 30 µM | – | CC[C@H](C)[C@H](NC(=O)[C@H](CC(C)C)NC(=O)[C@H](Cc1ccccc1)NC(=O)[C@H](CC(C)C)NC(=O)[C@H](CCSC)NC(=O)[C@H](CCCNC(=N)N)NC(=O)[C@H](CO)NC(=O)[C@@H](N)CCSC)C(=O)N[C@@H](CO)C(=O)N[C@@H](Cc1ccccc1)C(=O)N[C@@H](Cc1c[nH]c2ccccc12)C(=O)NCC(=O)O [compound 52] (H-MSRMLFLISFWG-OH) | 87.2%
7.5 to 15 µM | 1 to 10 µM | 0.7 | CC[C@H](C)[C@H](NC(=O)[C@H](CC(C)C)NC(=O)[C@H](Cc1ccccc1)NC(=O)[C@H](Cc1c[nH]c2ccccc12)NC(=O)[C@@H](N)CCSC)C(=O)N[C@@H](CS)C(=O)N[C@@H](Cc1c[nH]cn1)C(=O)N[C@@H](Cc1c[nH]c2ccccc12)C(=O)NCC(=O)O [compound 145] (H-MWFLICHWG-OH) | 107%
7.5 to 15 µM | > 30 µM | – | CSCC[C@H](NC(=O)[C@H](CCCNC(=N)N)NC(=O)[C@H](CO)NC(=O)[C@@H](N)CCSC)C(=O)N[C@@H](Cc1c[nH]c2ccccc12)C(=O)N[C@@H](Cc1ccccc1)C(=O)N[C@@H](CC(C)C)C(=O)N[C@H](C(=O)N[C@@H](CO)C(=O)N[C@@H](Cc1ccccc1)C(=O)N[C@@H](Cc1c[nH]c2ccccc12)C(=O)NCC(=O)O)C(C)C [compound 56] (H-MSRMWFLVSFWG-OH) | 100%
15 to 22.5 µM | 1 to 10 µM | 0.7 | CC[C@H](C)[C@@H]1NC(=O)[C@H](CC(C)C)NC(=O)[C@H](Cc2ccccc2)NC(=O)[C@H](Cc2c[nH]c3ccccc23)NC(=O)[C@H](CCSC)NC(=O)[C@@H](N)CCCCNC(=O)C[C@@H](C(=O)O)NC(=O)[C@H](Cc2c[nH]c3ccccc23)NC(=O)[C@H](Cc2ccccc2)NC(=O)[C@H](CS)NC1=O [compound 170] (HELM PEPTIDE1{K.M.W.F.L.I.C.F.W.D}$PEPTIDE1,PEPTIDE1,1:R3-10:R3$$$V2.0) | 107%
7.5 to 15 µM | > 30 µM | – | CCC[C@H](N)C(=O)N[C@@H](Cc1c[nH]c2ccccc12)C(=O)N[C@@H](Cc1ccccc1)C(=O)N[C@@H](CC(C)C)C(=O)N[C@H](C(=O)N[C@@H](CS)C(=O)N[C@@H](Cc1ccccc1)C(=O)N[C@@H](Cc1c[nH]c2ccccc12)C(=O)NCC(=O)O)[C@@H](C)CC [compound 141] (HELM PEPTIDE1{[Nva].W.F.L.I.C.F.W.G}$$$$V2.0) | 100%
< 7.5 µM | < 0.4 µM | 1.85 | CC[C@H](C)[C@H](NC(=O)[C@H](CC(C)C)NC(=O)[C@H](CC(C)C)NC(=O)[C@H](Cc1c[nH]c2ccccc12)NC(=O)[C@H](CCSC)NC(C)=O)C(=O)N[C@@H](CO)C(=O)N[C@@H](Cc1ccccc1)C(=O)N[C@@H](Cc1c[nH]c2ccccc12)C(=O)NCC(=O)O [compound 218] (Ac-MWLLISFWG-OH) | 90.8%
